For eleven molecules, logP results are on record in patent publication US20120108422A1, “Antifungal 1,2,4-triazolyl Derivatives” (BASF SE, priority 2009, published 2012).

What is called logP is a log measure of how a compound divides between an organic and an aqueous phase. Read a high logP as higher lipophilicity.

The nature of the data set: physchem.
`CC(C)(C)C(O)(CCCCc1ccccc1)Cn1nc[nH]c1=S` (centres unmarked) [Example 16, 1-[2-tert-butyl-6-phenyl-2-hydroxyhexyl]-1H-1,2,4-triazole-5(4H)-thione] came in with a logP of 3.6.

With `CC(C)(C)C(O)(CCCCc1ccccc1Cl)Cn1nc[nH]c1=S` (centres unmarked) [Example 18, 1-[2-tert-butyl-6-(2-chlorophenyl)-2-hydroxyhexyl]-1H-1,2,4-triazole-5(4H)-thione], the lipophilicity (logP) was 4. `CC(C)(C)C(O)(CCCCc1ccc(Cl)cc1Cl)Cn1nc[nH]c1=S` (centres unmarked) [Example 20, 1-[2-tert-butyl-6-(2,4-dichlorophenyl)-2-hydroxyhexyl]-1H-1,2,4-triazole-5(4H)-thione] registered a log partition coefficient (logP) of 4.7. As for `CC(C)(C)C(O)(CCCc1ccc(F)cc1F)Cn1nc[nH]c1=S` (centres unmarked) [Example 10, 2-[2-tert-butyl-5-(2,4-difluoro-phenyl)-2-hydroxy-pentyl]-2,4-dihydro-[1,2,4]triazole-3-thione], the figure is 3.3; as for `CC(C)(C)C(O)(CCCCc1ccccc1F)Cn1nc[nH]c1=S` (centres unmarked) [Example 19, 1-[2-tert-butyl-6-(2-fluorophenyl)-2-hydroxyhexyl]-1H-1,2,4-triazole-5(4H)-thione], 3.4. `CC(C)(C)C(O)(CCCCCc1ccccc1F)Cn1nc[nH]c1=S` (centres unmarked) [Example 22, 1-[2-tert-butyl-7-(2-fluorophenyl)-2-hydroxyheptyl]-1H-1,2,4-triazole-5(4H)-thione] came in with a log partition coefficient (logP) of 4.2. As for `CC(C)(C)C(O)(CCCCc1ccc(Cl)cc1)Cn1nc[nH]c1=S` (centres unmarked) [Example 17, 1-[2-tert-butyl-6-(4-chlorophenyl)-2-hydroxyhexyl]-1H-1,2,4-triazole-5(4H)-thione], the figure is 4.2. `CC(C)(C)C(O)(CCCCCc1ccc(Cl)cc1)Cn1nc[nH]c1=S` (centres unmarked) [Example 23, 1-[2-tert-butyl-7-(4-chlorophenyl)-2-hydroxyheptyl]-1H-1,2,4-triazole-5(4H)-thione] displayed a logP of 4.4. As for `CC(Cc1ccc(F)cc1F)CC(O)(Cn1nc[nH]c1=S)C(C)(C)C` (centres unmarked) [Example 2, 2-[2-tert-butyl-5-(2,4-difluorophenyl)-2-hydroxy-4-methyl-pentyl]-2,4-dihydro-[1,2,4]triazole-3-thione], the figure is 3.8; as for `CC(C)(C)C(O)(CCCCc1ccc(F)cc1)Cn1nc[nH]c1=S` (centres unmarked) [Example 15, 1-[2-tert-Butyl-6-(4-fluorophenyl)-2-hydroxyhexyl]-1H-1,2,4-triazole-5(4H)-thione], 3.7. On to `CC(C)(C)C(O)(CCCCCc1ccc(F)cc1)Cn1nc[nH]c1=S` (centres unmarked) [Example 21, 1-[2-tert-butyl-7-(4-fluorophenyl)-2-hydroxyheptyl]-1H-1,2,4-triazole-5(4H)-thione], for which the lipophilicity (logP) stood at 4.
